Assay results published in US20110130425A1, “Use of H3 Histaminergic Agonists for the Treatment of Addiction to Drugs of Abuse” (priority 2009, published 2011).
“Also recorded” adds a separate entry of the source.

Assays:
[1] = system: reinforcing effects of methamphetamine; details: rat self-administration model; Munzar et al., 2004; cited from earlier work
[2] = system: cocaine self-administration; assay: Same protocol with lever pressing rewarded with drug during the second hour (resumption of self-administration); type: in vivo, rat
Procedure: In order to differentiate the drug seeking from the reward phenomenon, the same protocol as described above was used, with the proviso that the pressing of the lever was rewarded with drug during the second hour. In the control experiments, when the rats were treated with saline solution, a relatively stable pressing of the lever over the course of time was observed (FIG. 3).
These same rats, days afterwards, were subjected in random order to treatment with saline solution or imetit in doses of 10 mg/kg. After these treatments, the rats recovered stability by means of three sessions of self-administration of drug. […] This decrease was significant for the first 40 minutes of the self-administration period, as compared to the control rats that were pretreated with a saline solution. Thus, over the course of time, the desire for the drug reappeared.

[3] = system: reinforcement produced by cocaine; assay: Reinforcement phase: cocaine self-administration dose/response; type: in vivo, rat; details: rats
[4] = system: relapse into cocaine seeking; assay: Relapse phase: rehabilitation test, relapse induced by a single dose of cocaine; type: in vivo, rat; details: rats
Excerpt: III. Relapse Phase: The relapse phase is studied by using a rehabilitation test. In this phase, the desire of the rats for the drug is again induced by the administration of a single dose of drug. At this instant, the rat again feels the desire to obtain the drug, and so it again begins to press on the lever to obtain the drug, but the drug is not available to the animal.
The behavior of the rats was also studied during the relapse phase, after the animals had gone through the extinction phase. In the extinction phase, the animals received no reward (dose of cocaine) when they pressed the lever. After a minimum of six extinction sessions, lasting 2 hours each session, carried out on consecutive days, the lever-pressing behavior of the rats diminished at least 20 times in comparison to the start of the extinction sessions.
When the number of times that the rats pressed the lever decreased, the animals were subjected to 4 hour rehabilitation sessions (i.e., relapse sessions). These rehabilitation sessions consisted initially of extinction sessions of 3 hours, followed by the automatic release, by an injection, of a saline solution or different doses of cocaine. During the fourth hour, the behavior of the animals was studied in regard to the number of times that they pressed the lever after the administration of the different doses of cocaine (0 mg/kg, 0.5 mg/kg and 2 mg/kg). The number of times that the lever was pressed increased in proportion to the dose of cocaine administered (cocaine at 0.5 mg/kg or 2 mg/kg administered intravenously, or saline in controls) (FIG. 8). However, this increase in the number of times that the animals pressed the lever was not rewarded with the administration of more cocaine. The number of times that the rats pressed the lever was indicative of the rat's need to find the drug. Even so, the pressing of the lever was not rewarded with more cocaine, which differentiates this stage from that corresponding to self-administration. […]

[5] = system: cocaine craving; assay: Extinction phase: cocaine craving (lever pressing with drug no longer available); type: in vivo, rat
Excerpt: II. Extinction Phase: In this phase, the drug ceases to be available to the rats. During the extinction session, the animal learns, suddenly, that the drug can no longer be obtained by pressing the lever, which directs the rat toward an initial impulse of drug seeking. During the extinction session, one estimates the degree of the irrepressible desire of the rat for the drug (craving). After repeated extinction sessions, animals learn to reduce lever pressing and are ready for relapse testing.
Training was conducted in Skinner cages. Rats were trained to tap a lever to obtain saccharose. […] Once the training to obtain saccharose was complete, the rats had access to food ad libitum during the rest of the procedure. An intravenous catheter was subsequently implanted in the jugular vein. The catheter passed underneath the skin to reach the shoulder of the animal, where it was secured with a surgical gauze.
After 3-4 days of recovery, the animals were subjected, in the Skinner cages, to daily sessions of intravenous self-administration of 0.5 mg/kg doses of cocaine each time that they pressed an active lever. […] When this second lever was pressed by the animal, no drug was administered. The self-administration sessions lasted for 2 hours a day, 5 days a week, for at least six weeks.
The third self-administration protocol required the animals to press the lever five times to obtain the cocaine reinforcement.
Rats that succeeded in learning to self-administer the drug according to all three protocols described above were selected to test out the efficiency of the treatment with H3 histaminergic agonists in the extinction and relapse phases.
Drug craving, in this particular case cocaine craving, associated with the unexpected commencement of the extinction phase was studied once the animals had been self-administering the drug daily for at least six weeks.
The experiments began with the self-administration of cocaine for one hour. After this initial self-administration, the rats were divided into two groups. […]

Structure (SMILES) | reinforcing effects of methamphetamine [1] | latency (time until first lever press) on resumption of self-administration ([2]; imetit 10 mg/kg i.v. pretreatment, vs control, rats) | decrease in number of times the rats tapped the lever during the start of the self-administration phase ([2]; imetit 10 mg/kg pretreatment, vs saline) | period of the self-administration phase over which the decrease in lever tapping was significant ([2]; imetit 10 mg/kg pretreatment, vs saline, rats) | tendency to seek cocaine (self-injections in 2 hours) ([3]; imetit 3 mg/kg single dose one hour before reinforcement, even at 0.03 mg/kg cocaine) | lever pressing after relapse induced by a single dose of cocaine ([4]; imetit 3 mg/kg one hour before, cocaine 0.5 mg/kg, vs saline) | tapping of the lever in the first 20 minutes of extinction ([5]; imetit 3 mg/kg i.v. single dose, vs control rats) | latency (time until the rats pressed the lever for the first time) at start of extinction ([5]; imetit 10 mg/kg i.v. single dose, vs control) | impulsiveness in tapping the lever to obtain reward in the first 20 minutes of extinction ([5]; imetit 10 mg/kg i.v. single dose, vs control rats) | reinforcement produced by cocaine (self-injections in 2 hours) ([3]; thioperamide 3 mg/kg s.c. one hour before, cocaine 0-1.0 mg/kg per injection) | lever pressing after relapse induced by a reminder dose of cocaine ([4]; thioperamide 3 mg/kg s.c. or 6 mg/kg, one hour before, cocaine 0.5 or 2 mg/kg)
NC(=NCc1ccc(Cl)cc1)SCCCc1cnc[nH]1 [clobenpropit] | potentiate the reinforcing effects | – | – | – | – | – | – | – | – | – | –
N=C(N)SCCc1cnc[nH]1 [imetit] | – | significantly increased | approximately 50% | 40 min | diminished the tendency to seek cocaine; also recorded: self-administer less cocaine | caused a decrease in the pressing on the lever; also recorded: diminished significantly | did not cause a significant reduction | significantly increased; also recorded: increase in latency | significantly diminished | – | –
S=C(NC1CCCCC1)N1CCC(c2cnc[nH]2)CC1 [thioperamide] | potentiate the reinforcing effects | – | – | – | – | – | – | – | – | no significant increase | did not potentiate the rehabilitation; also recorded: does not produce a significant decline
